Experimental data reported in patent US8314131B2, “Triazole fused heteroaryl compounds and methods of use thereof” (Amgen Inc., priority 2007, dated 2012).

Assays:
IL-1 = test: LPS induced IL-1 cell assay (LPS-induced release of IL-1β from monocytes); assay type: cell-based; conditions: Homo sapiens, Monocyte; LPS-activated monocytes
Description: Lipopolysaccharide-Activated Monocyte TNF Production Assay
Test compounds were evaluated in vitro for the ability to inhibit the production of TNF by monocytes activated with bacterial lipopolysaccharide (LPS). Fresh residual source leukocytes (a byproduct of plateletpheresis) were obtained from a local blood bank, and peripheral blood mononuclear cells (PBMCs) were isolated by density gradient centrifugation on Ficol-Paque Plus (Pharmacia). PBMCs were suspended at 2×10^6/mL in DMEM supplemented to contain 2% FCS, 10 mM, 0.3 mg/mL […], 100 U/mL penicillin G and […] streptomycin sulfate (complete media). Cells were plated into Falcon flat bottom, 96 well culture plates (200 μL/well) and cultured overnight at 37° C. and 6% CO2. Non-adherent cells were removed by washing with 200 μl/well of fresh medium. Wells containing adherent cells (˜70% monocytes) were replenished with 100 μL of fresh medium.
Preparation of Test Compound Stock Solutions
Test compounds were dissolved in […]. Compound stock solutions were prepared to an initial concentration of […]. Stocks were diluted initially to 20-200 μM in complete media. Nine two-fold serial dilutions of each compound were then prepared in complete medium.
Treatment of Cells with Test Compounds and Activation of TNF Production with Lipopolysaccharide
One hundred microliters of each test compound dilution were added to microtiter wells containing adherent monocytes and 100 μL complete medium. Monocytes were cultured with test compounds for 60 min at which time 25 μL of complete medium containing 30 ng/mL lipopolysaccharide from E. coli K532 were added to each well. Cells were cultured an additional 4 hrs. Culture supernatants were then removed and TNF presence in the supernatants was quantified using an ELISA.
Compounds of the invention can also be shown to inhibit LPS-induced release of IL-1β, IL-6 and/or IL-8 from monocytes by measuring concentrations of IL-1β, IL-6 and/or IL-8 by methods well known to those skilled in the art. […] Thus, the compounds of the invention may lower elevated levels of TNF-α, IL-1, IL-6, and IL-8 levels. Reducing elevated levels of these inflammatory cytokines to basal levels or below is favorable in controlling, slowing progression, and alleviating many disease states.

[1] = test system: THP1 cells (LPS-induced TNF-α); test: Lipopolysaccharide-activated THP1 cell TNF production assay; conditions: Homo sapiens, THP-1, TNF-α secretion, read-out: THP-1 cell based assay IC50
Description: Lipopolysaccharide-Activated THP1 Cell TNF Production Assay
THP1 cells are resuspended in fresh THP1 media (RPMI 1640, 10% heat-inactivated FBS, 1XPGS, 1XNEAA, plus 30 μM βME) at a concentration of 1E6/mL. One hundred microliters of cells per well are plated in a polystyrene 96-well tissue culture. One microgram per mL of bacterial LPS is prepared in THP1 media and is transferred to the wells. Test compounds are dissolved in 100% DMSO and are serially diluted 3-fold in a polypropylene 96-well microtiter plate (drug plate). HI control and LO control wells contain only DMSO. One microliter of test compound from the drug plate followed by 10 μL of LPS are transferred to the cell plate. The treated cells are induced to synthesize and secrete TNF-α at 37° C. for 3 h. Forty microliters of conditioned media are transferred to a 96-well polypropylene plate containing 110 μL of ECL buffer (50 mM Tris-HCl pH 8.0, 100 mM NaCl, 0.05% Tween 20, 0.05% NaN3 and 1% FBS) supplemented with 0.44 nM MAB610 monoclonal Ab (R&D Systems), 0.34 nM ruthenylated AF210NA polyclonal Ab (R&D Systems) and 44 μg/mL sheep anti-mouse M280 Dynabeads (Dynal). After a 2 h incubation at room temperature with shaking, the reaction is read on the ECL M8 Instrument (IGEN Inc.). A low voltage is applied to the ruthenylated TNF-α immune complexes, which in the presence of TPA (the active component in Origlo), results in a cyclical redox reaction generating light at […]. The amount of secreted TNF-α in the presence of compound compared with that in the presence of DMSO vehicle alone (HI control) is calculated using the formula: % control (POC)=(cpd−average LO)/(average HI−average LO)*100. Data (consisting of POC and inhibitor concentration in μM) is fitted to a 4-parameter equation (y=A+((B−A)/(1+((x/C)^D))), where A is the minimum y (POC) value, B is the maximum y (POC), C is the x (cpd concentration) at the point of inflection and D is the slope factor) using a Levenburg-Marquardt non-linear regression algorithm.

p38α = p38α (Homo sapiens, UniProt Q16539); test: p38 in-vitro HTRF enzyme assay; assay type: biochemical; conditions: recombinant human enzyme, read-out: p38a IC50
Description: p38 In-Vitro HTRF Enzyme Assay
The compounds of the invention can be tested for their respective affinities for the p38 protein using a conventional p38 in-vitro enzyme activity assay. For example, a P38-alpha HTRF assay may be used to measure the protein's in-vitro phosphorylation activity, and the data analyzed using time resolved fluorimetry techniques (FRET). A p38 HTRF assay is as follows. The kinase reaction buffer for p38α, p38β, p38δ and p38γ HTRF assays consists of 50 mM Tris-pH 7.5, 5 mM MgCl2, 0.1 mg/mL BSA, 100 μM Na3VO4 and 0.5 mM DTT. The HTRF detection buffer contains 100 mM HEPES-pH 7.5, 100 mM NaCl, 0.1% BSA, 0.05% Tween-20, and 10 mM EDTA. Each compound was dissolved in 100% DMSO and serially diluted (3 fold, 10 point) in a polypropylene 96-well microtiter plate (drug plate). The final starting concentration of the compound in the p38α […]and p38β enzymatic assays was about 1 μM. The final starting concentration of each compound in the p38δ and p38γ enzymatic assays was about 10 μM. The p38α, p38β, p38δ and p38γ kinase reactions were carried out in a polypropylene 96-well black round bottom assay plate in total volume of 30 μL kinase reaction buffer. Appropriate concentration of purified and activated enzyme (recombinant human) was mixed with indicated concentration of ATP and 100 nM GST-ATF2-Avitag, in the presence or absence (HI control) of each compound. In the absence of enzyme, the background was measured as LO control. HI controls and LO controls contained only DMSO. The reaction was allowed to incubate for 1 hour at RT. […] After 60 minutes incubation at room temperature, the assay plate was read in a Discovery Plate Reader. The wells were excited with coherent 320 nm light and the ratio of delayed ([…] post excitation) emissions at […] (native europium fluorescence) and 665 nm (europium fluorescence transferred to allophycocyanin—an index of substrate phosphorylation) was determined (Park et al, 1999). The resulting data was analyzed by taking the proportion of substrate phosphorylated in the kinase reaction in the presence of each individual compound and comparing it with that phosphorylated in the presence of DMSO vehicle alone (HI control). The data was calculated using the formula: % control (POC)=(compound−average LO)/(average HI−average LO)*100. Data (consisting of POC and inhibitor concentration in μM) was fitted to a 4-parameter equation (y=A+((B−A)/(1+((x/C)^D))), where A is the minimum y (POC) value, B is the maximum y (POC), C is the x (compound concentration) at the point of inflection and D is the slope factor, using a Levenburg-Marquardt non-linear regression algorithm. The inhibition constant (Ki) of the inhibitor was estimated from the IC50 (compound concentration at the point of inflection C) using the Cheng-Prussof equation: Ki=IC50/(1+S/Km), where S is the ATP substrate concentration, and Km is the Michaelis constant for ATP as determined experimentally. All results were expressed as the mean±the standard error of the mean. Data acquisition and non-linear regression algorithms were performed using Activity Base v5.2 and XLfit software v4.1 respectively. Additional assay information may be obtained in Park Y W, Cummings R T, Wu L, et al. Homogeneous Proximity Tyrosine Kinase Assays: Scintillation Proximity Assay versus Homogeneous Time-Resolved Fluorescence. Analytical Biochemistry. 1999; 269: 94-104.

p38α, sequence (Q16539 whole entry): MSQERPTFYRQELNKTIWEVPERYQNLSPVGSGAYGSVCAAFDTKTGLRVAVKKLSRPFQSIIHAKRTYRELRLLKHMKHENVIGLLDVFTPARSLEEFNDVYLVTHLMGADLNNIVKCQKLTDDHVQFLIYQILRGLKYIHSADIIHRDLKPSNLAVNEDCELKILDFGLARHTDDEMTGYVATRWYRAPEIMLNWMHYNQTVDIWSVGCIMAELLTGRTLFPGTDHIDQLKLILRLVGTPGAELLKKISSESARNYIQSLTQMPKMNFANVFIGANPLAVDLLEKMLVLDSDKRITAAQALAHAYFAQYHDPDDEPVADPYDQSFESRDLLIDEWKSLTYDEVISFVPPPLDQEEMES

| IC50 (IL-1) | IC50 [1] | IC50 (p38α) | Compound |
| --- | --- | --- | --- |
| 25 to 100 nM | 25 to 100 nM |  | Cc1c(F)cc(C(=O)NC2CC2)cc1-c1ccc2c(c1)nnn2C1CCOCC1 [Example 11, N-cyclopropyl-3-fluoro-4-methyl-5-(1-(tetrahydro-2H-pyran-4-yl)-1H-benzotriazol-5-yl)benzamide] |
| 1000 to 5000 nM | 25 to 100 nM | < 25 nM | Cc1ccc(C(=O)NC2CC2)cc1-c1ccc2c(c1)nnn2C(C)C [Example 5, N-cyclopropyl-4-methyl-3-(1-(1-methylethyl)-1H-benzotriazol-5-yl)benzamide] |
| 1000 to 5000 nM | 250 to 1000 nM | < 25 nM | Cc1ccc(C(=O)NC(C)C)cc1-c1ccc2c(c1)nnn2C(C)C [Example 4, 4-methyl-N-(1-methylethyl)-3-(1-(1-methylethyl)-1H-1,2,3-benzotriazol-5-yl)benzamide] |
| 1000 to 5000 nM | < 25 nM | < 25 nM | Cc1c(F)cc(C(=O)NC2CC2)cc1-c1ccc2c(c1)nnn2C(C)(C)C [Example 10, N-cyclopropyl-3-(1-(1,1-dimethylethyl)-1H-benzotriazol-5-yl)-5-fluoro-4-methylbenzamide] |
| 100 to 250 nM | < 25 nM | < 25 nM | Cc1c(F)cc(C(=O)NC2CC2)cc1-c1ccc2c(c1)nnn2-c1ccccc1Cl [Example 6, 3-(1-(2-chlorophenyl)-1H-benzotriazol-5-yl)-N-cyclopropyl-5-fluoro-4-methylbenzamide] |
| 25 to 100 nM | < 25 nM | < 25 nM | Cc1c(F)cc(C(=O)Nc2ccnn2C)cc1-c1ccc2c(c1)nnn2-c1ccccc1Cl [Example 9, 3-(1-(2-chlorophenyl)-1H-benzotriazol-5-yl)-5-fluoro-4-methyl-N-(1-methyl-1H-pyrazol-5-yl)benzamide] |
| 100 to 250 nM | < 25 nM | < 25 nM | Cc1cc(F)ccc1-n1nnc2cc(-c3cc(C(=O)NC4CC4)cc(F)c3C)ccc21 [Example 8, N-cyclopropyl-3-fluoro-5-(1-(4-fluoro-2-methylphenyl)-1H-benzotriazol-5-yl)-4-methylbenzamide] |
| 1000 to 5000 nM | 25 to 100 nM | < 25 nM | Cc1ccc(C(=O)NC2CC2)cc1-c1ccc2c(c1)nnn2-c1ccccc1Cl [Example 7, 3-(1-(2-chlorophenyl)-1H-benzotriazol-5-yl)-N-cyclopropyl-4-methylbenzamide] |
